Assay results as given in ChEMBL document CHEMBL3525916, “Investigation of figopitant and its metabolites in rat tissue by combining whole-body autoradiography with liquid extraction surface analysis mass spectrometry” (Drug Metab Dispos, 2012).

Key:
Conditions in all cases: in vivo
Rattus norvegicus [1] = assay: Biodistribution in albino Wistar Hannover rat testis at 5 mg/kg, iv after 24 hrs by autoradiography analysis; assay type: ADME, organism-based; design: dose 5 mg/kg, route intravenous
Rattus norvegicus [2] = assay: Biodistribution in albino Wistar Hannover rat epididymis at 5 mg/kg, iv after 24 hrs by autoradiography analysis; assay type: ADME, organism-based; design: dose 5 mg/kg, route intravenous
Rattus norvegicus [3] = assay: Biodistribution in albino Wistar Hannover rat adrenal cortex at 5 mg/kg, iv after 24 hrs by autoradiography analysis; assay type: ADME, organism-based; design: dose 5 mg/kg, route intravenous
Rattus norvegicus [4] = assay: Biodistribution in albino Wistar Hannover rat myocardium at 5 mg/kg, iv after 24 hrs by autoradiography analysis; assay type: ADME, organism-based; design: dose 5 mg/kg, route intravenous
Thymus [5] = assay: Biodistribution in albino Wistar Hannover rat thymus at 5 mg/kg, iv after 24 hrs by autoradiography analysis; assay type: ADME, organism-based; design: dose 5 mg/kg, route intravenous
Plasma [6] = assay: Biodistribution in albino Wistar Hannover rat plasma at 5 mg/kg, iv after 24 hrs by liquid scintillation counting; assay type: ADME, organism-based; design: dose 5 mg/kg, route intravenous
Brain [7] = assay: Biodistribution in albino Wistar Hannover rat brain at 5 mg/kg, iv after 24 hrs by autoradiography analysis; assay type: ADME, organism-based; design: dose 5 mg/kg, route intravenous
Harderian gland [8] = assay: Biodistribution in albino Wistar Hannover rat harderian gland at 5 mg/kg, iv after 24 hrs by autoradiography analysis; assay type: ADME, organism-based; design: dose 5 mg/kg, route intravenous
Liver [9] = assay: Half life in albino Wistar Hannover rat liver at 5 mg/kg, iv by autoradiography analysis; assay type: ADME, organism-based; design: dose 5 mg/kg, route intravenous
Brain [10] = assay: Half life in albino Wistar Hannover rat brain at 5 mg/kg, iv by autoradiography analysis; assay type: ADME, organism-based; design: dose 5 mg/kg, route intravenous
[11] = Retention time in albino Wistar Hannover rat at 5 mg/kg, iv; assay type: ADME, organism-based; design: dose 5 mg/kg, route intravenous
Blood [12] = assay: Biodistribution in albino Wistar Hannover rat whole blood at 5 mg/kg, iv after 4 hrs by liquid scintillation counting; assay type: ADME, organism-based; design: dose 5 mg/kg, route intravenous
Plasma [13] = assay: Biodistribution in albino Wistar Hannover rat plasma at 5 mg/kg, iv after 4 hrs by liquid scintillation counting; assay type: ADME, organism-based; design: dose 5 mg/kg, route intravenous
Zone of skin [14] = assay: Biodistribution in albino Wistar Hannover rat skin at 5 mg/kg, iv after 4 hrs by autoradiography analysis; assay type: ADME, organism-based; design: dose 5 mg/kg, route intravenous
Rattus norvegicus [15] = assay: Biodistribution in albino Wistar Hannover rat tongue at 5 mg/kg, iv after 24 hrs by autoradiography analysis; assay type: ADME, organism-based; design: dose 5 mg/kg, route intravenous
Rattus norvegicus [16] = assay: Biodistribution in albino Wistar Hannover rat salivary gland at 5 mg/kg, iv after 24 hrs by autoradiography analysis; assay type: ADME, organism-based; design: dose 5 mg/kg, route intravenous
Lung = assay: Half life in albino Wistar Hannover rat lung at 5 mg/kg, iv by autoradiography analysis; assay type: ADME, organism-based; design: dose 5 mg/kg, route intravenous
Thymus [17] = assay: Half life in albino Wistar Hannover rat thymus at 5 mg/kg, iv by autoradiography analysis; assay type: ADME, organism-based; design: dose 5 mg/kg, route intravenous
Blood [18] = assay: Half life in albino Wistar Hannover rat whole blood at 5 mg/kg, iv by liquid scintillation counting; assay type: ADME, organism-based; design: dose 5 mg/kg, route intravenous
Plasma [19] = assay: Half life in albino Wistar Hannover rat plasma at 5 mg/kg, iv by liquid scintillation counting; assay type: ADME, organism-based; design: dose 5 mg/kg, route intravenous
[20] = Drug uptake in albino Wistar Hannover rat harder's gland at 5 mg/kg, iv by LESA-MS analysis; assay type: ADME, organism-based, Harderian gland; design: dose 5 mg/kg, route intravenous
[21] = Drug uptake in albino Wistar Hannover rat epididymis at 5 mg/kg, iv by LESA-MS analysis; assay type: ADME, organism-based; design: dose 5 mg/kg, route intravenous
Brain [22] = assay: Drug uptake in albino Wistar Hannover rat brain at 5 mg/kg, iv by LESA-MS analysis; assay type: ADME, organism-based; design: dose 5 mg/kg, route intravenous
Kidney = assay: Drug uptake in albino Wistar Hannover rat outer medulla of kidney at 5 mg/kg, iv by LESA-MS analysis; assay type: ADME, organism-based; design: dose 5 mg/kg, route intravenous
[23] = Drug uptake in albino Wistar Hannover rat salivary gland at 5 mg/kg, iv by LESA-MS analysis; assay type: ADME, organism-based; design: dose 5 mg/kg, route intravenous
[24] = Drug uptake in albino Wistar Hannover rat white fat at 5 mg/kg, iv by LESA-MS analysis; assay type: ADME, organism-based, White adipose tissue; design: dose 5 mg/kg, route intravenous
[25] = Drug uptake in albino Wistar Hannover rat myocardium at 5 mg/kg, iv by LESA-MS analysis; assay type: ADME, organism-based; design: dose 5 mg/kg, route intravenous
Liver [26] = assay: Drug uptake in albino Wistar Hannover rat liver at 5 mg/kg, iv by LESA-MS analysis; assay type: ADME, organism-based; design: dose 5 mg/kg, route intravenous
Pancreas [27] = assay: Drug uptake in albino Wistar Hannover rat pancreas at 5 mg/kg, iv by LESA-MS analysis; assay type: ADME, organism-based; design: dose 5 mg/kg, route intravenous
Thymus [28] = assay: Drug uptake in albino Wistar Hannover rat thymus at 5 mg/kg, iv by LESA-MS analysis; assay type: ADME, organism-based; design: dose 5 mg/kg, route intravenous
Stomach = assay: Drug uptake in albino Wistar Hannover rat stomach at 5 mg/kg, iv by LESA-MS analysis; assay type: ADME, organism-based; design: dose 5 mg/kg, route intravenous
[29] = Drug uptake in albino Wistar Hannover rat testis at 5 mg/kg, iv by LESA-MS analysis; assay type: ADME, organism-based; design: dose 5 mg/kg, route intravenous
Rattus norvegicus [30] = assay: Biodistribution in albino Wistar Hannover rat muscle caudal at 5 mg/kg, iv after 5 mins by autoradiography analysis; assay type: ADME, organism-based, Muscle tissue; design: dose 5 mg/kg, route intravenous
Rattus norvegicus [31] = assay: Biodistribution in albino Wistar Hannover rat salivary gland at 5 mg/kg, iv after 5 mins by autoradiography analysis; assay type: ADME, organism-based; design: dose 5 mg/kg, route intravenous
Pancreas [32] = assay: Biodistribution in albino Wistar Hannover rat pancreas at 5 mg/kg, iv after 5 mins by autoradiography analysis; assay type: ADME, organism-based; design: dose 5 mg/kg, route intravenous
Rattus norvegicus [33] = assay: Biodistribution in albino Wistar Hannover rat adipose tissue at 5 mg/kg, iv after 5 mins by autoradiography analysis; assay type: ADME, organism-based; design: dose 5 mg/kg, route intravenous
Rattus norvegicus [34] = assay: Biodistribution in albino Wistar Hannover rat myocardium at 5 mg/kg, iv after 5 mins by autoradiography analysis; assay type: ADME, organism-based; design: dose 5 mg/kg, route intravenous
Rattus norvegicus [35] = assay: Biodistribution in albino Wistar Hannover rat bone marrow at 5 mg/kg, iv after 5 mins by autoradiography analysis; assay type: ADME, organism-based; design: dose 5 mg/kg, route intravenous
Plasma [36] = assay: Biodistribution in albino Wistar Hannover rat plasma at 5 mg/kg, iv after 5 mins by liquid scintillation counting; assay type: ADME, organism-based; design: dose 5 mg/kg, route intravenous
Harderian gland [37] = assay: Biodistribution in albino Wistar Hannover rat harderian gland at 5 mg/kg, iv after 5 mins by autoradiography analysis; assay type: ADME, organism-based; design: dose 5 mg/kg, route intravenous
Zone of skin [38] = assay: Biodistribution in albino Wistar Hannover rat skin at 5 mg/kg, iv after 5 mins by autoradiography analysis; assay type: ADME, organism-based; design: dose 5 mg/kg, route intravenous
Rattus norvegicus [39] = assay: Biodistribution in albino Wistar Hannover rat muscle caudal at 5 mg/kg, iv after 4 hrs by autoradiography analysis; assay type: ADME, organism-based, Muscle tissue; design: dose 5 mg/kg, route intravenous
Rattus norvegicus [40] = assay: Biodistribution in albino Wistar Hannover rat salivary gland at 5 mg/kg, iv after 4 hrs by autoradiography analysis; assay type: ADME, organism-based; design: dose 5 mg/kg, route intravenous
Liver [41] = assay: Biodistribution in albino Wistar Hannover rat liver at 5 mg/kg, iv after 4 hrs by autoradiography analysis; assay type: ADME, organism-based; design: dose 5 mg/kg, route intravenous
Rattus norvegicus [42] = assay: Biodistribution in albino Wistar Hannover rat adipose tissue at 5 mg/kg, iv after 4 hrs by autoradiography analysis; assay type: ADME, organism-based; design: dose 5 mg/kg, route intravenous
Rattus norvegicus [43] = assay: Biodistribution in albino Wistar Hannover rat renal cortex at 5 mg/kg, iv after 4 hrs by autoradiography analysis; assay type: ADME, organism-based; design: dose 5 mg/kg, route intravenous
Rattus norvegicus [44] = assay: Biodistribution in albino Wistar Hannover rat testis at 5 mg/kg, iv after 4 hrs by autoradiography analysis; assay type: ADME, organism-based; design: dose 5 mg/kg, route intravenous
Rattus norvegicus [45] = assay: Biodistribution in albino Wistar Hannover rat epididymis at 5 mg/kg, iv after 4 hrs by autoradiography analysis; assay type: ADME, organism-based; design: dose 5 mg/kg, route intravenous
Pituitary gland = assay: Biodistribution in albino Wistar Hannover rat pituitary at 5 mg/kg, iv after 4 hrs by autoradiography analysis; assay type: ADME, organism-based; design: dose 5 mg/kg, route intravenous
Spleen = assay: Biodistribution in albino Wistar Hannover rat spleen at 5 mg/kg, iv after 4 hrs by autoradiography analysis; assay type: ADME, organism-based; design: dose 5 mg/kg, route intravenous
Thymus [46] = assay: Biodistribution in albino Wistar Hannover rat thymus at 5 mg/kg, iv after 4 hrs by autoradiography analysis; assay type: ADME, organism-based; design: dose 5 mg/kg, route intravenous
Liver [47] = assay: Drug uptake in albino Wistar Hannover rat liver at 5 mg/kg, iv

CN(CCc1cc(C(F)(F)F)cc(C(F)(F)F)c1)C(=O)[C@H](c1ccccc1)N1CCN(CC2CC2)CC1.Cl.O
Drug uptake (Rattus norvegicus [1]): 633 ngequiv/g
Drug uptake (Rattus norvegicus [2]): 1043 ngequiv/g
Drug uptake (Rattus norvegicus [3]): 3447 ngequiv/g
Drug uptake (Rattus norvegicus [4]): 1207 ngequiv/g
Drug uptake (Thymus [5]): 1746 ngequiv/g
Drug uptake (Plasma [6]): 80 ngequiv/g
Drug uptake (Brain [7]): 50 ngequiv/g
Drug uptake (Harderian gland [8]): 6246 ngequiv/g
t1/2 (Liver [9]): 31.2 h
t1/2 (Brain [10]): 32.7 h
Retention time [11]: 0.358 h
Drug uptake (Blood [12]): 361 ngequiv/g
Drug uptake (Plasma [13]): 192 ngequiv/g
Drug uptake (Zone of skin [14]): 1997 ngequiv/g
Drug uptake (Rattus norvegicus [15]): 891 ngequiv/g
Drug uptake (Rattus norvegicus [16]): 1877 ngequiv/g
t1/2 (Lung): 20.5 h
t1/2 (Thymus [17]): 22.7 h
t1/2 (Blood [18]): 38.6 h
t1/2 (Plasma [19]): 21.9 h
Drug uptake [20]: 79.9%
Drug uptake [21]: 62.1%
Drug uptake (Brain [22]): 75.6%
Drug uptake (Kidney): 20.8%
Drug uptake [23]: 42.5%
Drug uptake [24]: 100%
Drug uptake [25]: 22.6%
Drug uptake (Liver [26]): 12.9%
Drug uptake (Pancreas [27]): 23.7%
Drug uptake (Thymus [28]): 67.2%
Drug uptake (Stomach): 34.6%
Drug uptake [29]: 79.5%
Drug uptake (Rattus norvegicus [30]): 6936 ngequiv/g
Drug uptake (Rattus norvegicus [31]): 10729 ngequiv/g
Drug uptake (Pancreas [32]): 17869 ngequiv/g
Drug uptake (Rattus norvegicus [33]): 467 ngequiv/g
Drug uptake (Rattus norvegicus [34]): 13504 ngequiv/g
Drug uptake (Rattus norvegicus [35]): 4445 ngequiv/g
Drug uptake (Plasma [36]): 483 ngequiv/g
Drug uptake (Harderian gland [37]): 4132 ngequiv/g
Drug uptake (Zone of skin [38]): 1743 ngequiv/g
Drug uptake (Rattus norvegicus [39]): 2606 ngequiv/g
Drug uptake (Rattus norvegicus [40]): 8238 ngequiv/g
Drug uptake (Liver [41]): 13851 ngequiv/g
Drug uptake (Rattus norvegicus [42]): 537 ngequiv/g
Drug uptake (Rattus norvegicus [43]): 8020 ngequiv/g
Drug uptake (Rattus norvegicus [44]): 1510 ngequiv/g
Drug uptake (Rattus norvegicus [45]): 2290 ngequiv/g
Drug uptake (Pituitary gland): 7747 ngequiv/g
Drug uptake (Spleen): 10694 ngequiv/g
Drug uptake (Thymus [46]): 3372 ngequiv/g
Drug uptake (Liver [47]): 12.9%
